Earlier results in US11459613B2, “Methods of characterizing resistance to modulators of Cereblon” (THE BRIGHAM AND WOMEN'S HOSPITAL, INC., priority 2015, dated 2022).

Conditions: lenalidomide in combination with dexamethasone, front-line therapy, standard-risk multiple myeloma

## Nc1cccc2c1CN(C1CCC(=O)NC1=O)C2=O (stereo not shown) [lenalidomide]
  disease progression develops after initiating treatment (on average): 11 months
